These are literature values, as cited in the PKSmart pharmacokinetics tables (Seal et al. 2025).

The term MRT denotes the average time that molecules of a dose stay in the body. One may read the Vd as the apparent volume that relates the amount in the body to the concentration in plasma or blood. The clearance is the rate of elimination divided by the concentration. What is called half-life is the time needed for the level to fall by half in the phase considered. The term fraction unbound denotes free concentration divided by total concentration.

The nature of the data set: Lombardo, Berellini, Obach 2018, Drug Metab Dispos 46:1466, doi 10.1124/dmd.118.082966. Particulars: human; for MRT / Vd / clearance / half-life: in vivo, iv; for fraction unbound: plasma.

For the compound `COc1ccc(/C=C\c2cc(OC)c(OC)c(OC)c2)cc1NC(=O)C(N)CO` (stereo not drawn), the MRT is 0.32 h, the Vd is 0.44 L/kg, the clearance was 22.6 mL/min/kg and the half-life is 0.26 h.

With `COc1cccc(OCCCN)c1-c1cc(Nc2cnc(C#N)cn2)n[nH]1`, the MRT is 11.2 h, the Vd was 22.8 L/kg, the clearance is 34 mL/min/kg and the half-life is 12.5 h.

Turning to `COc1cc(OC)c(/C=C/S(=O)(=O)Cc2ccc(OC)c(NCC(=O)O)c2)c(OC)c1`, the MRT is 1.2 h, the Vd is 0.11 L/kg, the clearance is 1.51 mL/min/kg and the half-life is 0.95 h.

With `CCN1C[C@H]2CN(C)C[C@@H](C1)C2OC(=O)c1ccc(Cl)cc1` (stereo partly drawn), the MRT was 8.8 h, the Vd is 9 L/kg, the clearance was 17 mL/min/kg and the half-life was 8.6 h.

Turning to `OC(CCN1CCCC1)(c1ccccc1)C1CCCCC1` (stereo not drawn), the MRT was 14 h, the Vd is 0.74 L/kg, the clearance was 0.86 mL/min/kg and the half-life was 12 h.

With `CCN(CC)CCNc1ccc(CNC=O)c2sc3ccc(OC)cc3c(=O)c12`, the MRT is 5.4 h, the Vd was 1.01 L/kg, the clearance is 3.1 mL/min/kg and the half-life is 6.19 h.

Regarding `CCC1=C(C)CN(C(=O)NCCc2ccc(S(=O)(=O)NC(=O)N[C@H]3CC[C@H](C)CC3)cc2)C1=O`, the Vd was 0.19 L/kg, the clearance was 0.5 mL/min/kg and the half-life is 10 h.

`COc1ccccc1Oc1c(NS(=O)(=O)c2ccc(C(C)C)cn2)nc(-c2ccnc(-c3nnn[nH]3)c2)nc1OCCO`: the Vd was 0.28 L/kg, the clearance is 8.1 mL/min/kg, the half-life was 3.8 h and the fraction unbound was 0.0085.

`O=P(O)(O)C(NC1CCCCCC1)P(=O)(O)O`: the MRT was 1.85 h, the Vd is 0.24 L/kg, the clearance is 2.16 mL/min/kg and the half-life was 1.82 h. Further, the fraction unbound was 0.9.

`CC(C)[N@+]1(C)[C@H]2CC[C@H]1C[C@H](OC(=O)C(c1ccccc1)C1CCCC1)C2` (stereo partly drawn): the mean residence time MRT was 2.48 h, the Vd is 1.25 L/kg, the clearance is 8.41 mL/min/kg and the half-life was 3.3 h.

In the case of `COc1cccc(OC)c1C(=O)NC1C(=O)N2C(C(=O)O)C(C)(C)S[C@H]12` (stereo partly drawn), the MRT is 0.8 h, the Vd was 0.32 L/kg, the clearance is 6.6 mL/min/kg and the half-life is 0.64 h. In addition, the fraction unbound was 0.43.

Turning to `O=c1[nH]cnc2c([C@@H]3N[C@H](CO)[C@@H](O)[C@H]3O)c[nH]c12`, the clearance is 1.56 mL/min/kg and the half-life is 11.6 h.

Take `CN1CCN2c3ccccc3Cc3ccccc3[C@H]2C1`: the MRT is 10.5 h, the Vd was 13.8 L/kg, the clearance is 21.9 mL/min/kg and the half-life is 9.6 h. For the same compound, the fraction unbound is 0.05.

With `N=C(N)NCCCC(NC(=O)C1CCCN1C(=O)C1CSSCCC(=O)NC(Cc2ccc(O)cc2)C(=O)NC(Cc2ccccc2)C(=O)NC(CCC(N)=O)C(=O)NC(CC(N)=O)C(=O)N1)C(=O)NCC(N)=O` (stereo not drawn), the MRT was 3.6 h, the Vd was 0.3 L/kg, the clearance is 1.4 mL/min/kg and the half-life was 3 h.

On to `CCCNC(C)C(=O)Nc1ccccc1C` (stereo not drawn), for which the MRT is 2.2 h, the Vd is 3.7 L/kg, the clearance is 29 mL/min/kg and the half-life is 1.8 h. The fraction unbound is 0.72.

In the case of `Cc1cccc(C)c1OCC(C)N` (stereo not drawn), the MRT was 12 h, the Vd is 5.9 L/kg, the clearance is 8.3 mL/min/kg and the half-life was 9.9 h. Besides, the fraction unbound is 0.36.

Regarding `CN(C)C(=N)NC(=N)N`, the MRT was 1.4 h, the Vd is 0.64 L/kg, the clearance was 7.4 mL/min/kg and the half-life is 1.7 h.

For the compound `CN(C)CCCN1c2ccccc2Sc2ccc(Cl)cc21`, the MRT is 10 h, the Vd is 10 L/kg, the clearance is 16 mL/min/kg and the half-life was 11 h.

Turning to `CN1CCN(CCCCN2C(=O)CN(/N=C/c3ccc(-c4ccc(Cl)cc4)o3)C2=O)CC1`, the MRT is 100 h, the Vd was 13 L/kg, the clearance is 2.4 mL/min/kg and the half-life is 79 h. Also, the fraction unbound is 0.06.

`COc1cc(C2c3cc4c(cc3C(OC3OC5COC(C)OC5C(O)C3N(C)C)C3COC(=O)C23)OCO4)cc(OC)c1O` (stereo not drawn): the MRT was 17 h, the Vd is 0.3 L/kg, the clearance was 0.4 mL/min/kg and the half-life was 14 h. Besides, the fraction unbound is 0.013.

For `OCc1cc([C@@H](O)CNCCCCCCOCCOCc2c(Cl)cccc2Cl)ccc1O`, the MRT is 1.53 h, the Vd is 2.38 L/kg, the clearance was 25.7 mL/min/kg and the half-life is 2.4 h. The fraction unbound is 0.06.

Turning to `CC(C)=CCC[C@](C)(O[C@@H]1O[C@H](CO)[C@@H](O)[C@H](O)[C@H]1O)[C@H]1CC[C@]2(C)[C@@H]1[C@H](O)C[C@@H]1[C@@]3(C)CC[C@H](O[C@@H]4O[C@H](CO)[C@@H](O)[C@H](O)[C@H]4O[C@@H]4O[C@H](CO)[C@@H](O)[C@H](O)[C@H]4O)C(C)(C)[C@@H]3CC[C@]12C`, the MRT was 20.2 h, the Vd is 0.11 L/kg, the clearance was 0.09 mL/min/kg and the half-life was 18.5 h.

With `C=CCN1CCC[C@H]1CNC(=O)c1cc(S(=O)(=O)NC)c(N)cc1OC`, the mean residence time (MRT) was 7 h, the Vd is 2.3 L/kg, the clearance is 5.47 mL/min/kg and the half-life was 4.8 h.

As for `CN(c1nc2ccccc2s1)C1CCN(C[C@@H](O)COc2ccc(F)cc2)CC1`, the MRT was 22.6 h, the Vd was 5.5 L/kg, the clearance was 4.05 mL/min/kg and the half-life is 18.9 h. For the same compound, the fraction unbound is 0.014.

Regarding `O=C(O)CCCCN(CCc1ccccc1OCc1ccc(CCc2ccccc2)cc1)Cc1ccc(C(=O)O)cc1`, the MRT was 0.44 h, the Vd was 0.24 L/kg, the clearance was 9 mL/min/kg and the half-life is 0.25 h.

Consider `CN(C)CCO[C@]1(c2ccccc2)C[C@H]2CC[C@]1(C)C2(C)C`, for which the MRT was 26.6 h, the Vd is 7.7 L/kg, the clearance was 4.88 mL/min/kg and the half-life is 26.6 h. Moreover, the fraction unbound is 0.05.

`CCCc1nc(C(C)(C)O)c(C(=O)O)n1Cc1ccc(-c2ccccc2-c2nnn[nH]2)cc1`: the clearance was 0.29 mL/min/kg and the half-life was 10.8 h.

On to `CCOC(=O)C(CCc1ccccc1)NC(C)C(=O)N1CC2(CC1C(=O)O)SCCS2` (stereo not drawn), for which the MRT is 0.61 h, the Vd is 0.43 L/kg, the clearance was 11.9 mL/min/kg and the half-life is 8.6 h.

Consider `CON=C(C(=O)NC1C(=O)N2C(C(=O)[O-])=C(C[N+]34CCC(C(N)=O)(CC3)CC4)CSC12)c1nsc(N)n1` (stereo not drawn), for which the MRT was 2.6 h, the Vd was 0.27 L/kg, the clearance was 1.7 mL/min/kg and the half-life was 2.2 h.

On to `CCCCCCC(C)(C)c1cc(O)c2c(c1)OC(C)(C)[C@H]1CC=C(CO)C[C@H]21`, for which the MRT was 3.94 h, the Vd is 5.06 L/kg, the clearance was 21.4 mL/min/kg and the half-life is 7.33 h.

For `COC(=O)c1cnc2n1CCc1ccccc1C2=C1CCN(CCc2ccc(OCc3ccc4ccccc4n3)cc2)CC1`, the MRT was 7.1 h, the Vd is 6.03 L/kg, the clearance is 14.1 mL/min/kg and the half-life was 10.6 h. Also, the fraction unbound is 0.001.

As to `COc1cc([S+](C)O)ccc1-c1nc2ncccc2[n-]1` (stereo not drawn), the MRT was 1 h, the Vd is 0.62 L/kg, the clearance was 10 mL/min/kg and the half-life was 0.8 h. The fraction unbound is 0.41.

On to `Cc1ccc(S(=O)(=O)NC(=O)N[C@H]2[C@H]3CC[C@@](C)([C@H]2O)C3(C)C)cc1`, for which the MRT was 13 h, the Vd was 0.27 L/kg, the clearance is 0.34 mL/min/kg and the half-life is 9.2 h.

`CCCCCCCN(CC)CCCC(O)c1ccc(NS(C)(=O)=O)cc1` (stereo not drawn): the MRT was 7.7 h, the Vd was 12 L/kg, the clearance was 26 mL/min/kg and the half-life is 7 h.

As for `CC(C)C(=O)OCC(=O)[C@]12O[C@@H](C3CCCCC3)O[C@@H]1C[C@@H]1[C@@H]3CC=C4CC(=O)C=C[C@]4(C)[C@H]3[C@@H](O)C[C@@]12C`, the MRT was 1.45 h, the Vd was 2.9 L/kg, the clearance is 33.3 mL/min/kg and the half-life is 1.04 h. The fraction unbound was 0.01.
